In patent US20250346592A1 (Celgene Corporation, priority 2022, published 2025) one finds IC50 data, which are given here for 20 compounds.

SMILES strings stand for the structures. A value given as a limit tells only on which side of the number the result lay.

Sequence of hPAD4 enzyme (Q9UM07 whole entry): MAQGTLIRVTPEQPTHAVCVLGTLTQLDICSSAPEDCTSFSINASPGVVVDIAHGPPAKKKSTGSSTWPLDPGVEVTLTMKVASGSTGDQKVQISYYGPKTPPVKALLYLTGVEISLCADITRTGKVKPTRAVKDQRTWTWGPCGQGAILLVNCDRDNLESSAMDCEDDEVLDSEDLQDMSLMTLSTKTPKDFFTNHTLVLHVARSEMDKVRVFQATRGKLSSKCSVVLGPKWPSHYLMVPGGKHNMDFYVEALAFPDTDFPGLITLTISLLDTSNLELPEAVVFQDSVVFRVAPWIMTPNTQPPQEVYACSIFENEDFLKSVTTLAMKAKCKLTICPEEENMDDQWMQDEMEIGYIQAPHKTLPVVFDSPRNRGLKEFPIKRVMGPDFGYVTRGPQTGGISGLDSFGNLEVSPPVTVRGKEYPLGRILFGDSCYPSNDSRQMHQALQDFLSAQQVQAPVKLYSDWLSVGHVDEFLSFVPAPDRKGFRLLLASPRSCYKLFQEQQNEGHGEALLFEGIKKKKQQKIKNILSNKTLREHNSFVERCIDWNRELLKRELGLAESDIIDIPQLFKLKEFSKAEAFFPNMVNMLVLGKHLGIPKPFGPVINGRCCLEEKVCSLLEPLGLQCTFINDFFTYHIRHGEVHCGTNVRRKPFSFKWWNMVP

The target in the assay is hPAD4 enzyme (Homo sapiens (Human), UniProt Q9UM07). In words: RFMS2 assay (RapidFire mass spectrometry, TSTGGRQGSHH peptide substrate). The conditions noted are these: 35 nM recombinant human PAD4, 500 μM TSTGGRQGSHH peptide, 30 minutes at room temperature; read-out: RFMS 2 IC50. In kind it is biochemical. The method in brief:
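Recombinant human PAD4 (35 nM) with 500 μM TSTGGRQGSHH peptide in HEPES pH 7.4, 200 mM NaCl, 2 mM CaCl2, 5 mM DTT, 1.2% DMSO, 30 min at room temperature; 3-fold compound series, top 20 μM. Quenched with formic acid; substrate and citrullinated product quantified by RapidFire MRM mass spectrometry for IC50.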
As to `C[C@@H](N)CN1CCc2cc3c(cc2C1=O)nc(-c1cc2ccccc2n1CC1CCC1)n3C` [Example 71, (R)-6-(2-aminopropyl)-2-(1-(cyclobutylmethyl)-1H-indol-2-yl)-1-methyl-1,6,7,8-tetrahydro-5H-imidazo[4,5-g]isoquinolin-5-one], the concentration for half-maximal inhibition (IC50) was 101 to 500 nM.
Take `COc1cccc2cc(-c3nc4cc5c(cc4n3C)CCN(C[C@H](N)CF)C5=O)n(Cc3nc(C)no3)c12` [Example 129, (S)-6-(2-amino-3-fluoropropyl)-2-(7-methoxy-1-((3-methyl-1,2,4-oxadiazol-5-yl)methyl)-1H-indol-2-yl)-1-methyl-1,6,7,8-tetrahydro-5H-imidazo[4,5-g]isoquinolin-5-one]: the half-maximal inhibitory concentration (IC50) lay in the range of 101 to 500 nM.
As for `COc1cccc2cc(-c3nc4cc5c(cc4n3C)CCN(C[C@H](N)CF)C5=O)n(Cc3ncc(C)o3)c12` [Example 125, (S)-6-(2-amino-3-fluoropropyl)-2-(7-methoxy-1-((5-methyloxazol-2-yl)methyl)-1H-indol-2-yl)-1-methyl-1,6,7,8-tetrahydro-5H-imidazo[4,5-g]isoquinolin-5-one], the figure is 101 to 500 nM; as for `Cn1c(-c2cc3cccc(OCCn4cnc(C#N)n4)c3n2CC2CC2)nc2cc3c(cc21)CCN(C[C@H](N)CF)C3=O` [Example 224, (S)-1-(2-((2-(6-(2-amino-3-fluoropropyl)-1-methyl-5-oxo-5,6,7,8-tetrahydro-1H-imidazo[4,5-g]isoquinolin-2-yl)-1-(cyclopropylmethyl)-1H-indol-7-yl)oxy)ethyl)-1H-1,2,4-triazole-3-carbonitrile], 101 to 500 nM.
As for `COc1cccc2cc(-c3nc4cc5c(cc4n3C)CCN(C[C@H](N)CF)C5=O)n(Cc3coc(C)n3)c12` [Example 145, (S)-6-(2-amino-3-fluoropropyl)-2-(7-methoxy-1-((2-methyloxazol-4-yl)methyl)-1H-indol-2-yl)-1-methyl-1,6,7,8-tetrahydro-5H-imidazo[4,5-g]isoquinolin-5-one], the figure is 101 to 500 nM.
As for `Cc1ccc2cc(-c3nc4cc5c(cc4n3C)CCN(C[C@@H](C)N)C5=O)n(CC3CC3)c2c1` [Example 29, (R)-6-(2-aminopropyl)-2-(1-(cyclopropylmethyl)-6-methyl-1H-indol-2-yl)-1-methyl-1,6,7,8-tetrahydro-5H-imidazo[4,5-g]isoquinolin-5-one], the figure is 101 to 500 nM; as for `Cn1c(-c2cc3cccc(OCCn4cccn4)c3n2CC2CC2)nc2cc3c(cc21)CCN(C[C@H](N)CF)C3=O` [Example 155, (S)-2-(7-(2-(1H-pyrazol-1-yl)ethoxy)-1-(cyclopropyl-methyl)-1H-indol-2-yl)-6-(2-amino-3-fluoropropyl)-1-methyl-1,6,7,8-tetrahydro-5H-imidazo[4,5-g] isoquinolin-5-one], 11 to 100 nM.
`C[C@@H](N)CN1CCc2cc3c(cc2C1=O)nc(-c1cc2ccccc2n1Cc1cccnc1)n3C` [Example 80, (R)-6-(2-aminopropyl)-1-methyl-2-(1-(pyridin-3-ylmethyl)-1H-indol-2-yl)-1,6,7,8-tetrahydro-5H-imidazo[4,5-g]isoquinolin-5-one]: the concentration for half-maximal inhibition (IC50) fell in the range of 101 to 500 nM.
The result for `CCn1c(-c2nc3cc4c(cc3n2C)CCN(C[C@H](N)CF)C4=O)cc2ccc(OC)nc21` [Example 108, (S)-6-(2-amino-3-fluoropropyl)-2-(1-ethyl-6-methoxy-1H-pyrrolo[2,3-b]pyridin-2-yl)-1-methyl-1,6,7,8-tetrahydro-5H-imidazo[4,5-g]isoquinolin-5-one] reads 501 to 1000 nM; that for `C[C@@H](N)CN1CCc2cc3c(cc2C1=O)nc(-c1c(F)c2ccccc2n1CC1CC1)n3C` [Example 46, (R)-6-(2-aminopropyl)-2-(1-(cyclopropylmethyl)-3-fluoro-1H-indol-2-yl)-1-methyl-1,6,7,8-tetrahydro-5H-imidazo[4,5-g]isoquinolin-5-one], 501 to 1000 nM.
For the compound `COCCn1c(-c2nc3cc4c(cc3n2C)CCN(C[C@@H](C)N)C4=O)cc2cccc(C)c21` [Example 87, (R)-6-(2-aminopropyl)-2-(1-(2-methoxyethyl)-7-methyl-1H-indol-2-yl)-1-methyl-1,6,7,8-tetrahydro-5H-imidazo[4,5-g]isoquinolin-5-one], the 50% inhibitory concentration (IC50) is 501 to 1000 nM.
On to `COC1CC(Cn2c(-c3nc4cc5c(cc4n3C)CCN(C[C@@H](C)N)C5=O)cc3ccccc32)C1` (stereo partly drawn) [Example 75, (R)-6-(2-aminopropyl)-2-(1-((3-methoxycyclobutyl)methyl)-1H-indol-2-yl)-1-methyl-1,6,7,8-tetrahydro-5H-imidazo[4,5-g]isoquinolin-5-one], for which the half-inhibitory concentration (IC50) is 501 to 1000 nM.
The result for `COCC(C)c1ccc2cc(-c3nc4cc5c(cc4n3C)CCN(C[C@@H](C)N)C5=O)n(CC3CC3)c2c1` (single isomer, unassigned) [Example 40] reads above 1000 nM; that for `C[C@@H](N)CN1CCc2cc3c(cc2C1=O)nc(-c1cc2cccc(C(F)(F)F)c2n1CC1CC1)n3C` [Example 36, (R)-6-(2-aminopropyl)-2-(1-(cyclopropylmethyl)-7-(trifluoromethyl)-1H-indol-2-yl)-1-methyl-1,6,7,8-tetrahydro-5H-imidazo[4,5-g]isoquinolin-5-one], 501 to 1000 nM; that for `Cn1c(-c2cc3ccccc3n2Cc2ccon2)nc2cc3c(cc21)CCN(C[C@H](N)CF)C3=O` [Example 98, (S)-6-(2-amino-3-fluoropropyl)-2-(1-(isoxazol-3-ylmethyl)-1H-indol-2-yl)-1-methyl-1,6,7,8-tetrahydro-5H-imidazo[4,5-g]isoquinolin-5-one], above 1000 nM.
As for `Cn1c(-c2cc3cccc(OCCn4ncnc4C#N)c3n2CC2CC2)nc2cc3c(cc21)CCN(C[C@H](N)CF)C3=O` [Example 225, (S)-1-(2-((2-(6-(2-amino-3-fluoropropyl)-1-methyl-5-oxo-5,6,7,8-tetrahydro-1H-imidazo[4,5-g]isoquinolin-2-yl)-1-(cyclopropylmethyl)-1H-indol-7-yl)oxy)ethyl)-1H-1,2,4-triazole-5-carbonitrile], the figure is above 1000 nM; as for `Cn1nccc1Cn1c(-c2nc3cc4c(cc3n2C)CCN(C[C@H](N)CF)C4=O)cc2ccccc21` [Example 96, (S)-6-(2-amino-3-fluoropropyl)-1-methyl-2-(1-((1-methyl-1H-pyrazol-5-yl)methyl)-1H-indol-2-yl)-1,6,7,8-tetrahydro-5H-imidazo[4,5-g]isoquinolin-5-one], above 1000 nM.
The result for `C[C@@H](N)CN1CCc2cc3c(cc2C1=O)nc(-c1cc2cccc(Cl)c2n1CC1CC1)n3C` [Example 33, (R)-6-(2-aminopropyl)-2-(7-chloro-1-(cyclopropylmethyl)-1H-indol-2-yl)-1-methyl-1,6,7,8-tetrahydro-5H-imidazo[4,5-g]isoquinolin-5-one] reads 101 to 500 nM.
`Cn1c(-c2cc3ccc(C(C)(C)C)cc3n2CC2CC2)nc2cc3c(cc21)CCN(C[C@H](N)CF)C3=O` [Example 55, (S)-6-(2-amino-3-fluoropropyl)-2-(6-(tert-butyl)-1-(cyclopropylmethyl)-1H-indol-2-yl)-1-methyl-1,6,7,8-tetrahydro-5H-imidazo[4,5-g]isoquinolin-5-one]: the IC50 fell in the range of 501 to 1000 nM.
Turning to `Cc1nnc(Cn2c(-c3nc4cc5c(cc4n3C)CCN(C[C@H](N)CF)C5=O)cc3ccccc32)o1` [Example 99, (S)-6-(2-amino-3-fluoropropyl)-1-methyl-2-(1-((5-methyl-1,3,4-oxadiazol-2-yl)methyl)-1H-indol-2-yl)-1,6,7,8-tetrahydro-5H-imidazo[4,5-g]isoquinolin-5-one], the IC50 is above 1000 nM.
